pIC50: −log10 of the molar value.
Target: T1, Proteinase-activated receptor 4 (Homo sapiens, UniProt Q96RI0)
T1 sequence (Q96RI0 whole entry): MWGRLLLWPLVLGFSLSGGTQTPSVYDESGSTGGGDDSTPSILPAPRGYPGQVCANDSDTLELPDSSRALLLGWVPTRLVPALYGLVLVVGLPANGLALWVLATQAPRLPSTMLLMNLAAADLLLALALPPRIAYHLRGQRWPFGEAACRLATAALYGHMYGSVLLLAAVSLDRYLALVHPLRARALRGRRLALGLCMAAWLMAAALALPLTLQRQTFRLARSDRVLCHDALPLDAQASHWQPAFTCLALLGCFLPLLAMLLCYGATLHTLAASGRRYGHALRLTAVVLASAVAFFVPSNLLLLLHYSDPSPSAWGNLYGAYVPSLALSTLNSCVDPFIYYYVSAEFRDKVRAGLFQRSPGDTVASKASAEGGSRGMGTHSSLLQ
Experiment: FLIPR Assay in PAR4-Expressing HEK293 Cells: FLIPR-based calcium mobilization assay in HEK293 cells was used to measure PAR4 antagonism agonism, and selectivity against PAR1. The activity of the PAR4 antagonists of the present invention were tested in PAR4 expressing cells by monitoring H-Ala-Phe(4-F)-[…]NH2-induced intracellular calcium mobilization. Counter screens for agonist activity and PAR1 antagonist activity were also performed. Briefly, PAR/PAR4-expressing HEK293 cells were grown in DMEM (Life Technology, Grand Island, N.Y.) containing 10% heat-inactivated FBS, 1% Penicillin-Streptomycin, 10 μg/mL blasticidin, and 100 μg/mL Zeocin at 37° C. with 5% CO2. Cells were plated overnight prior to the experiment in a black 384-well Purecoat Amine clear bottom plate (Becton Dickinson Biosciences, San Jose, Calif.) at 10,000 cells/well in 30 μL growth medium and incubated in a humidified chamber at 37° C. with 5% CO2 overnight. Prior to compound addition, the cell medium was replaced with 40 μL of 1× calcium and magnesium-containing Hank's Balanced Saline Solution (HBSS) (with 20 mM HEPES) and 1:1000 diluted fluorescent calcium indicator (Codex Biosolutions, Gaithersburg, Md.). […]

`COc1ccc(NC(=O)O[C@H]2CCNC[C@H]2Oc2cc3sc(-c4cc(C)cc5nc(OC)cnc45)nc3cc2F)cn1` (racemic) showed a pIC50 of 6.01.

Work on `COc1cnc2c(-c3nc4cc(F)c(O[C@@H]5CC(F)(F)C[C@@H]5OC(=O)Nc5cnc(OCCO)nc5)cc4s3)cc(C)cc2c1` (relative stereo) yielded a pIC50 of 7.70.

Source: ChEMBL document CHEMBL5727860, “Bicyclic heteroaryl substituted compounds” (2020)
